This is an account of results in patent EP0302423A2, “1-Phenyl-3-(1-piperazinyl)-1h-indazoles, a process and intermediates for their preparation, and the use thereof as medicaments” (HOECHST-ROUSSEL PHARMACEUTICALS INCORPORATED, priority 1987, dated 1989).

Holding throughout (format): in vivo
For assay [1], the system named is mice. The experiment in a line: phenyl-p-benzoquinone writhing assay in mice (analgesia). The following applies: Mus musculus, sc. Background: Writhing tests count abdominal constrictions after an irritant is injected.
Assay [2] deals with male mouse. The experiment in a line: supramaximal electroshock (SES) assay (anticonvulsant activity). To be noted: for ED50: ip, read-out: ANTICONVULSANT ACTIVITY (% Inhibition of Convulsion) ED50 (mg/kg,i.p.). A general note: The maximal electroshock test induces tonic seizures with an electrical stimulus.
Assay [3] has as its system mice. The assay is described as follows: tetrabenazine induced ptosis assay in mice (antidepressant activity). The following applies: for ED50: Mus musculus, ip, i.p. dose effecting calculated 50% inhibition of tetrabenazine-induced ptosis in mice, read-out: ANTI-DEPRESSANT ACTIVITY (% Inhibition of Ptosis) ED50 (mg/kg,i.p.). As for the experimental part: In this procedure, male mice (Charles River, CD-1), weighing about 20 to 39 g, are used in test groups of five animals. Test compounds are dissolved, or suspended with 1 drop of Tween-80, in distilled water and administered to the animals in volumes of 10 cc per kg of body weight. […] Tetrabenazine solution and the solvent used to dissolve, or suspend, the test compounds are administered by the same route and at the same intervals as the test compounds to a control group. […] The total score for each group of 5 animals will therefore vary from 0 to 20; these scores are used as the indications of the activity of the test compound. The vehicle-control group score is used as a determinate of the validity of each test.

Where [4] appears, read: read-out: ANALGESIC ACTIVITY (% Inhibition of Writhing) ED50 (mg/kg).
The mark [5] stands for this setting: male mouse, at peak activity time, protection against extensor tonus.
The mark [6] stands for this setting: calculated s.c. dose effecting approximately 50% inhibition of writhing in mice, at peak time, read-out: ANALGESIC ACTIVITY (% Inhibition of Writhing) ED50.

Each structure is given as a SMILES string. Counter-ions that a name gives are not always drawn. Like-named read-outs stand apart in the source and are kept apart here.

Take `CCC(=O)O[C@](Cc1ccccc1)(c1ccccc1)[C@H](C)CN(C)C` [propoxyphene, reference compound]: in assay [1] (setting [4]), the ED50 stood at 3.9 mg/kg.

With `CCN1CCN(c2nn(-c3ccc(C(F)(F)F)cc3)c3ccccc23)CC1` [3-(4-Ethyl-1-piperazinyl)-1-[4-trifluoromethyl)phenyl]-1H-indazole fumarate], the ED50 in assay [2] (setting [5]) was 8.2 mg/kg.

As for `CP(C)(=O)CN1CCN(c2nn(-c3ccccc3)c3ccccc23)CC1` [3-[4-(Dimethylphosphinylmethyl)-1-piperazinyl]-1-phenyl-1H-indazole], the ED50 in assay [2] (setting [5]) amounted to 24.3 mg/kg.

Consider `CC(C)=CCN1CCC2(C)c3cc(O)ccc3CC1C2C` (centres unmarked) [pentazocine, reference compound], for which the ED50 in assay [1] (setting [4]) was found to be 1.3 mg/kg.

Regarding `NC(=O)N1CCN(c2nn(-c3ccccc3Cl)c3ccccc23)CC1` [4-[1-(2-chlorophenyl)-1H-indazol-3-yl]-1-piperazine carboxamide hemifumarate], in assay [2] (setting [5]), the ED50 is 38.9 mg/kg.

`CN1CCN(c2nn(-c3ccc(C(F)(F)F)cc3)c3ccccc23)CC1.O=C(O)/C=C/C(=O)O` [3-(4-Methyl-1-piperazinyl)-1-[4-(trifluoromethyl)phenyl]-1H-indazole fumarate]: in assay [2] (setting [5]), the ED50 is 27 mg/kg.

Consider `CN(C)CCC=C1c2ccccc2CCc2ccccc21` [amitriptyline, reference compound], for which, in assay [3], the ED50 was 1.5 mg/kg.

`CN1CCN(c2nn(-c3ccccc3)c3ccccc23)CC1.Cl` [1-Phenyl-3-(4-methyl-1-piperazinyl)-1H-indazole hydrochloride]: the ED50 is 11.1 mg/kg in assay [3], 1.6 mg/kg in assay [1] (setting [6]) and 14.6 mg/kg in assay [2] (setting [5]).

As for `c1ccc(-n2nc(N3CCNCC3)c3ccccc32)cc1` [1-Phenyl-3-(1-piperazinyl)-1H-indazole hydrocloride], the ED50 in assay [3] is 25.4 mg/kg; in assay [1] (setting [6]), 0.7 mg/kg. The “% inhibition of convulsions at indicated dosage” value in assay [2] (60 mg/kg, i.p., male mouse) is given as 100% @ 60 mg/kg*.

On to `Fc1ccc(-n2nc(N3CCNCC3)c3ccccc32)cc1` [1-(4-Fluorophenyl)-3-(1-piperazinyl)-1H-indazole], for which the ED50 in assay [3] is 17.3 mg/kg.

`CCC1(c2ccccc2)C(=O)NC(=O)NC1=O` [phenobarbitol, reference compound]: in assay [2] (Mus musculus), the ED50 amounted to 8.4 mg/kg.

For `CN(C)CCCN1c2ccccc2CCc2ccccc21` [imipramine, reference compound], the ED50 in assay [3] (read-out: ANTI-[…] (% Inhibition of Ptosis) ED50 (mg/kg,i.p.)) was 1.3 mg/kg.

With `CN1CCN(c2nn(-c3ccc(F)cc3)c3ccccc23)CC1.O=C(O)/C=C/C(=O)O` [1-(4-Fluorophenyl)-3-(4-methyl-1-piperazinyl)-1H-indazole fumarate], in assay [3] (20 mg/kg, i.p., mice), the “% inhibition of ptosis at indicated screening dosage (i.p.)” value is listed as 65% @ 20 mg/kg*. Besides, the ED50 in assay [1] (setting [6]) was 0.8 mg/kg; in assay [2] (setting [5]), 12.9 mg/kg.

Regarding `NC(=O)N1CCN(c2nn(-c3ccc(F)cc3)c3ccccc23)CC1` [4-[1-(4-Fluorophenyl)-1H-indazol-3-yl]-1-piperazine carboxamide], the ED50 in assay [2] (setting [5]) was 22.7 mg/kg.
